Data reported in article PMC8950151, “Synthesis and Evaluation of the Antifungal and Toxicological Activity of Nitrofuran Derivatives” (Pharmaceutics, 2022).
Converted amounts (≈) assume the structure as drawn. Read-outs that look alike come from different tables or passages of the source.

Tests used:
[1] = test system: Cryptococcus neoformans (H99/ATCC 208821); assay: Susceptibility test (CLSI M27-A3 broth microdilution, resazurin readout), MIC90; assay type: cell-based
[2] = test system: Histoplasma capsulatum (G217-B/ATCC 26032); assay: microbe, parasite or virus in culture; assay type: cell-based; conditions: ATCC26032, 144 h
[3] = test system: C. krusei (ATCC 6258); assay: Susceptibility test (CLSI M27-A3 broth microdilution, resazurin readout), MIC90; assay type: cell-based, Candida krusei; conditions: Pichia kudriavzevii
[4] = test system: T. rubrum (ATCC 28289); assay: Susceptibility assay for dermatophytes (CLSI M38-A2, resazurin), MIC90; assay type: cell-based; conditions: Trichophyton rubrum, ATCC28289, 96 h, 35 °C
[5] = test system: C. glabrata (ATCC 90030); assay: Minimum fungicidal concentration (MFC); assay type: cell-based, Candida glabrata; conditions: Nakaseomyces glabratus, ATCC90030
[6] = test system: T. rubrum (ATCC 28289); assay: Minimum fungicidal concentration (MFC); assay type: cell-based, Trichophyton rubrum; conditions: Trichophyton rubrum, ATCC28289
[7] = test system: Trichophyton mentagrophytes (ATCC 11481); assay: Minimum fungicidal concentration (MFC); assay type: cell-based; conditions: T. mentagrophytes; for fungistatic / fungicidal profile: MFC versus MIC90; for MFC: Trichophyton mentagrophytes, ATCC11481
[8] = in vivo; conditions: AU37 [glp-4 (bn2) I, sek-1 (km4) X], Caenorhabditis elegans, C. elegans larvae viability
Procedure: The experiments were carried out with the mutant strain (AU37 [glp-4 (bn2) I; […]]). The strain was maintained on plates containing nematode growth medium (NGM) seeded with Escherichia coli OP50 at 16 °C. The stage of synchronization of young adults at stage L4 was performed for the toxicity test. About 20 larvae were transferred to each well of 96-well plates containing 100 μL of a medium composed of 60% of 50 mM NaCl; 40% BHI broth; 10 mg/mL cholesterol in ethanol; 200 mg/mL ampicillin and 90 mg/mL kanamycin. Then, 100 μL of dilutions of nitrofuran derivatives (showing the best selectivity index against the fungal species) were added. […] Plates were incubated at 25 °C for 24 h. Survival was assessed by the mobility and shape of the nematode (stick-shaped larvae were considered dead, while sinusoidal larvae were considered alive) under an inverted optical microscope on 40× objective lenses.

[9] = test system: Candida albicans (ATCC 90028); assay: Minimum fungicidal concentration (MFC); assay type: cell-based; conditions: ATCC90028, C. albicans
[10] = test system: Cryptococcus neoformans (H99/ATCC 208821); assay: Minimum fungicidal concentration (MFC); assay type: cell-based; conditions: ATCC208821, C. neoformans
[11] = test system: Trichophyton mentagrophytes (ATCC 11481); assay: Susceptibility assay for dermatophytes (CLSI M38-A2, resazurin), MIC90; assay type: cell-based; conditions: Trichophyton mentagrophytes, ATCC11481, 96 h, T. mentagrophytes, 35 °C, read-out: MIC90
[12] = test system: C. krusei (ATCC 6258); assay: Minimum fungicidal concentration (MFC); assay type: cell-based, Candida krusei; conditions: Pichia kudriavzevii, ATCC6258
[13] = in vitro; conditions: human
[14] = test system: Histoplasma capsulatum (G217-B/ATCC 26032); assay: microbe, parasite or virus in culture; assay type: cell-based; conditions: ATCC26032
[15] = test system: Paracoccidioides brasiliensis (Pb 18); assay: microbe, parasite or virus in culture; assay type: cell-based; conditions: Paracoccidioides brasiliensis
[16] = test system: C. glabrata (ATCC 90030); assay: Susceptibility test (CLSI M27-A3 broth microdilution, resazurin readout), MIC90; assay type: cell-based, Candida glabrata; conditions: Nakaseomyces glabratus, ATCC90030, 24 h, 37 °C
[17] = test system: Candida albicans (ATCC 90028); assay: as above; assay type: cell-based; conditions: ATCC90028, C. albicans, 24 h, 37 °C
[18] = test system: A549 (ATCC CCL-185) lung epithelial cell line; assay: Cytotoxicity assay in monolayer by resazurin colorimetric method; assay type: cell-based; conditions: Homo sapiens, A549 cells, 72 h

SMILES	MIC90 [2] [µg/mL]	MIC90 [4] [µg/mL]	MFC ([5]; C. glabrata, read-out: MFC) [µg/mL]	MFC [6] [µg/mL]	MIC90 ([1]; ATCC208821, 48 h) [µg/mL]	fungistatic / fungicidal profile [7]	MFC [7] [µg/mL]	viability at 24 h, 250 µg/mL [8] [%]	MFC [9] [µg/mL]	MFC [10] [µg/mL]	MIC90 [11] [µg/mL]	MFC [12] [µg/mL]	IC50 [13] [µg/mL]	MFC [14] [µg/mL]	MFC [15] [µg/mL]	MIC90 [16] [µg/mL]	MIC90 [17] [µg/mL]	IC50 [18] [µg/mL]	MIC90 ([3]; ATCC6258, 24 h) [µg/mL]	other results
C[C@@H]1[C@H](O)[C@@H](C)/C=C/C=C/C=C/C=C/C=C/C=C/C=C/[C@H](O[C@@H]2O[C@H](C)[C@@H](O)[C@H](N)[C@@H]2O)C[C@@H]2O[C@](O)(C[C@@H](O)C[C@@H](O)[C@H](O)CC[C@@H](O)C[C@@H](O)CC(=O)O[C@H]1C)C[C@H](O)[C@H]2C(=O)O [AmB, amphotericin B, reference compound]	0.03 (≈ 0.0325 µM)	–	–	–	–	–	–	–	–	–	–	–	–	–	–	–	–	–	–	MIC90 ([1]; ATCC208821, C. neoformans, 48 h, 37 °C, read-out: MIC90): 0.06 µg/mL (≈ 0.0649 µM); MIC90 ([3]; ATCC6258, C. krusei, 24 h, 37 °C, read-out: MIC90): 1 µg/mL (≈ 1.08 µM)
O=C(NCCc1ccccn1)c1ccc([N+](=O)[O-])o1 [Compound 3, 5-nitro-N-(2-(pyridin-2-yl)ethyl)furan-2-carboxamide]	3.9 (≈ 14.9 µM)	125 (≈ 478 µM)	> 250	125 (≈ 478 µM)	31.2 (≈ 120 µM)	fungistatic profile	250 (≈ 957 µM)	82.5	> 250	62.5 (≈ 239 µM)	62.5 (≈ 239 µM)	> 250	250 (≈ 957 µM)	3.9 (≈ 14.9 µM)	0.98 (≈ 3.75 µM)	> 250	> 250	231 (≈ 885 µM)	250 (≈ 957 µM)	–
O=C(NCc1ccccn1)c1ccc([N+](=O)[O-])o1 [Compound 4]	3.9 (≈ 15.8 µM)	125 (≈ 506 µM)	> 250	125 (≈ 506 µM)	31.2 (≈ 126 µM)	fungistatic profile	250 (≈ 1010 µM)	–	> 250	62.5 (≈ 253 µM)	31.2 (≈ 126 µM)	250 (≈ 1010 µM)	135 (≈ 547 µM)	3.9 (≈ 15.8 µM)	7.81 (≈ 31.6 µM)	> 250	250 (≈ 1010 µM)	29.5 (≈ 119 µM)	250 (≈ 1010 µM)	–
O=C(NCCCc1ccccc1)c1ccc([N+](=O)[O-])o1 [Compound 5]	1.95 (≈ 7.11 µM)	15.7 (≈ 57.1 µM)	–	31.2 (≈ 114 µM)	7.81 (≈ 28.5 µM)	–	62.5 (≈ 228 µM)	85.7	250 (≈ 911 µM)	15.6 (≈ 56.9 µM)	31.2 (≈ 114 µM)	62.5 (≈ 228 µM)	39.8 (≈ 145 µM)	1.95 (≈ 7.11 µM)	31.2 (≈ 114 µM)	125 (≈ 456 µM)	125 (≈ 456 µM)	30.1 (≈ 110 µM)	62.5 (≈ 228 µM)	MFC [5]: 125 µg/mL (≈ 456 µM); MIC ([1]; ATCC208821, 48 h, read-out: MIC90): 3.9 µg/mL (≈ 14.2 µM)
CN(C)CCCNC(=O)c1ccc([N+](=O)[O-])o1 [Compound 6]	> 250	> 250	> 250	> 250	250 (≈ 1040 µM)	–	> 250	–	> 250	250 (≈ 1040 µM)	> 250	> 250	15.6 (≈ 64.7 µM)	> 250	31.2 (≈ 130 µM)	> 250	> 250	13.2 (≈ 54.8 µM)	> 250	–
O=C(NCCc1c[nH]c2ccccc12)c1ccc([N+](=O)[O-])o1 [Compound 7]	0.98 (≈ 3.27 µM)	125 (≈ 418 µM)	> 250	> 250	62.5 (≈ 209 µM)	–	> 250	–	> 250	62.5 (≈ 209 µM)	125 (≈ 418 µM)	> 250	71.2 (≈ 238 µM)	0.98 (≈ 3.27 µM)	1.95 (≈ 6.52 µM)	> 250	250 (≈ 835 µM)	8.58 (≈ 28.7 µM)	250 (≈ 835 µM)	–
